This test concerns the target T1, PDE10 (UniProt Q8CA95).
T1 sequence (Q8CA95 1-790): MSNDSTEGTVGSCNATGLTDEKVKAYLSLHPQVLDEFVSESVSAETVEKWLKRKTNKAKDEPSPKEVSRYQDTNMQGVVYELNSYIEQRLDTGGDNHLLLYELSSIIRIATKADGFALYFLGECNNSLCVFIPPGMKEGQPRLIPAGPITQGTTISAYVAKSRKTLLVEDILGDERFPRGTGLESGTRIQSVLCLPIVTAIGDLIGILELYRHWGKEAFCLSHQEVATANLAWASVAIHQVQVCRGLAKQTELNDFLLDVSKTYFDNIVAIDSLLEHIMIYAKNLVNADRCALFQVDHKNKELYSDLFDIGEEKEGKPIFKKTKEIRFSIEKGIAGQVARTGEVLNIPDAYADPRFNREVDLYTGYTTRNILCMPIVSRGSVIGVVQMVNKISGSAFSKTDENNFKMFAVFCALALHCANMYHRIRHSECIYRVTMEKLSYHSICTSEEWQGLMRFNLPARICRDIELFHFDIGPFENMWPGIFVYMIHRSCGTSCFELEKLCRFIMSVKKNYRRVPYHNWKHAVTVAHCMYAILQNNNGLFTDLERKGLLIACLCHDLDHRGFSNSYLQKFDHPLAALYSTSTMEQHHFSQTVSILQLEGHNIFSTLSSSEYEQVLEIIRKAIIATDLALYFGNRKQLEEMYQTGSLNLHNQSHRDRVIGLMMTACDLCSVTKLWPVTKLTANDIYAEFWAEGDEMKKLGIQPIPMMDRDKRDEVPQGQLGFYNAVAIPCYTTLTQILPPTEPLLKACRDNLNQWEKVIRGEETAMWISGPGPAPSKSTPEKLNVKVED
The experiment in a line: PDE10 enzyme inhibition, IMAP TR-FRET assay (Example A: MPDE10A7 Enzyme Activity and Inhibition). The class given is biochemical. Conditions: Table 2A, Examples 61-64; read-out: IC50. On the procedure: MPDE10A7 Enzyme Activity and Inhibition Enzyme Activity. An IMAP TR-FRET assay was used to analyze the enzyme activity (Molecular Devices Corp., Sunnyvale Calif.). 5 μL of serial diluted PDE10A (BPS Bioscience, San Diego, Calif.) or tissue homogenate was incubated with equal volumes of diluted fluorescein labeled cAMP or cGMP for 60 min in 384-well polystyrene assay plates (Corning, Corning, N.Y.) at room temperature. After incubation, the reaction was stopped by adding 60 μL of diluted binding reagents and was incubated for 3 hours to overnight at room temperature. The plates were read on an Envision (Perkin Elmer, Waltham, Mass.) for time resolved fluorescence resonance energy transfer. The data were analyzed with GraphPad Prism (La Jolla, Calif.). Enzyme Inhibition. To check the inhibition profile, 5 μL of serial diluted compounds were incubated with 5 μL of diluted PDE10 enzyme (BPS Bioscience, San Diego, Calif.) or tissue homogenate in a 384-well polystyrene assay plate (Corning, Corning, N.Y.) for 30 min at room temperature. After incubation, 10 μL of diluted fluorescein labeled cAMP or cGMP substrate were added and incubated for 60 min at room temperature. The reaction was stopped by adding 60 μL of diluted binding reagents and plates were read on an Envision (Perkin Elmer, Waltham, Mass.) for time resolved fluorescence resonance energy transfer. The data were analyzed with GraphPad Prism (La Jolla, Calif.).
For orientation: TR-FRET usually uses a lanthanide donor and a delayed reading to cut background.

For `CC1CCN(c2nccnc2N2CC(c3ccc4ccccc4n3)C2)CC1` [Example 61, 2-{1-[3-(4-Methyl-piperidin-1-yl)-pyrazin-2-yl]-azetidin-3-yl}-quinoline], the IC50 (in general, the concentration that gives 50% inhibition) was found to be 3120 nM.
Regarding `OCC1CCN(c2nccnc2N2CC(c3ccc4ccccc4n3)C2)CC1` [Example 62, {1-[3-(3-Quinolin-2-yl-azetidin-1-yl)-pyrazin-2-yl]-piperidin-4-yl}-methanol], the IC50 amounted to 358 nM.
On to `CC1CCN(c2nccnc2N2CC(c3ccc4ccccc4n3)C2)C1` (stereo not shown) [Example 63, 2-{1-[3-(3-Methyl-pyrrolidin-1-yl)-pyrazin-2-yl]-azetidin-3-yl}-quinoline], for which the IC50 was found to be 641 nM.
Regarding `COc1cccc(-c2nccnc2N2CC(c3ccc4ccccc4n3)C2)c1` [Example 64, 2-{1-[3-(3-Methoxy-phenyl)-pyrazin-2-yl]-azetidin-3-yl}-quinoline], the concentration for half-maximal inhibition (IC50) was 17.5 nM.

For the origin of these results see patent US8946230B2, “Aryl- and heteroaryl- nitrogen-heterocyclic compounds as PDE10 inhibitors” (Amgen Inc., priority 2010, dated 2015).
